Laboratory results from patent publication US20080051387A1, “TETRAHYDROPYRIDO[3,4-D]PYRIMIDINES AND RELATED ANALOGUES” (priority 2006, published 2008).

These compounds were tested against T1, chimeric human H3 receptor (Homo sapiens, UniProt Q9Y5N1) (assay: Chimeric human H3 receptor screening GTP binding assay (inhibition of histamine-stimulated GTP-gamma35S binding, Example 8)). Details: 1 h; assay of Example 8; symbol "!" in column headed Ki; read-out: percent inhibition of agonist-induced GTP-gammaS binding to H3.
T1 construct: rat Galpha-i2 (Gnai2, rat); made in house; host or cells: Sf9 insect cells (baculovirus); P2 membranes
Format: biochemical
In short: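 Compound tested at 4 μM against 1 μM histamine stimulation; 125 pM GTP-gamma35S binding measured by filtration and scintillation after 60 min at room temperature. Membranes from Sf9 cells expressing chimeric human H3 plus G-protein subunits, in Tris pH 7.4/NaCl/MgCl2/GDP buffer; values are % inhibition after nonspecific subtraction.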

T1 sequence (Q9Y5N1 with tags, fused parts or gaps): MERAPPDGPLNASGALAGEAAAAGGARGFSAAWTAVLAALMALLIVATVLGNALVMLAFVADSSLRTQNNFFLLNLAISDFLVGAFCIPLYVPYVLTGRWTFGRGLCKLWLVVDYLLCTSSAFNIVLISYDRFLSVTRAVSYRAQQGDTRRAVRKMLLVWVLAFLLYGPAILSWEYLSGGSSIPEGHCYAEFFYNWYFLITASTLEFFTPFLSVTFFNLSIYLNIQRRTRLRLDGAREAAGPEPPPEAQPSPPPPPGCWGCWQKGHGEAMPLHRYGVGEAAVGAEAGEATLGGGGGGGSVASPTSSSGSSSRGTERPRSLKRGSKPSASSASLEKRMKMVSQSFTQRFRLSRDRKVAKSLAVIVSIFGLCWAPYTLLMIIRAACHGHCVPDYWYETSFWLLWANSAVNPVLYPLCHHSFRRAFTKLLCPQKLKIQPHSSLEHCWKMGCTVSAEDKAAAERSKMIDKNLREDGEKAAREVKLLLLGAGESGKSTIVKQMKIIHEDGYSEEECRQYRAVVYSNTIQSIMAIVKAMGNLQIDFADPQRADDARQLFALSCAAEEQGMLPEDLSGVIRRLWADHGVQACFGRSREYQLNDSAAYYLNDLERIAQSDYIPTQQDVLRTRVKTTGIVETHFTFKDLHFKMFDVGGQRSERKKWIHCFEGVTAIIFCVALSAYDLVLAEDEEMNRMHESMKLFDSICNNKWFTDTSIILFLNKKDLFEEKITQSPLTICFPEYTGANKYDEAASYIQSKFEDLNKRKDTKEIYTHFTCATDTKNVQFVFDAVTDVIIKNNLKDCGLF

| inhibition at 4 µM [%] | Compound |
| --- | --- |
| ≥ 90 | CCC(=O)N1CCc2cnc(N3CCN(C4CCC4)CC3)nc2CC1 [Compound 184, 2-(4-cyclobutylpiperazin-1-yl)-7-propionyl-6,7,8,9-tetrahydro-5H-pyrimido[4,5-d]azepine] |
| ≥ 90 | CC(=O)c1ccc(N2CCc3cnc(N4CCN(C5CCC5)CC4)nc3CC2)nc1 [Compound 185, 1-{6-[2-(4-cyclobutylpiperazin-1-yl)-5,6,8,9-tetrahydro-7H-pyrimido[4,5-d]azepin-7-yl]pyridin-3-yl}ethanone] |
| ≥ 90 | CNC(=O)c1ccc(N2CCc3cnc(N4CCN(C5CCC5)CC4)nc3CC2)nc1 [Compound 186, 6-[2-(4-cyclobutylpiperazin-1-yl)-5,6,8,9-tetrahydro-7H-pyrimido[4,5-d]azepin-7-yl]-N-methylnicotinamide] |
| ≥ 90 | Cc1cccc(C(=O)N2CCc3cnc(N4CCN(C5CCC5)CC4)nc3CC2)c1 [Compound 187, 2-(4-cyclobutylpiperazin-1-yl)-7-(3-methylbenzoyl)-6,7,8,9-tetrahydro-5H-pyrimido[4,5-d]azepine] |
| ≥ 90 | Cc1ccc(C(=O)N2CCc3cnc(N4CCN(C5CCC5)CC4)nc3CC2)cc1 [Compound 188, 2-(4-cyclobutylpiperazin-1-yl)-7-(4-methylbenzoyl)-6,7,8,9-tetrahydro-5H-pyrimido[4,5-d]azepine] |
| ≥ 90 | Cc1ccccc1C(=O)N1CCc2cnc(N3CCN(C4CCC4)CC3)nc2CC1 [Compound 189, 2-(4-cyclobutylpiperazin-1-yl)-7-(2-methylbenzoyl)-6,7,8,9-tetrahydro-5H-pyrimido[4,5-d]azepine] |
| ≥ 90 | COc1cccc(C(=O)N2CCc3cnc(N4CCN(C5CCC5)CC4)nc3CC2)c1 [Compound 190, 2-(4-cyclobutylpiperazin-1-yl)-7-(3-methoxybenzoyl)-6,7,8,9-tetrahydro-5H-pyrimido[4,5-d]azepine] |

Same assay, conditions: symbol ! in Ki; test compound 4 μM, 1 μM histamine; read-out: percent inhibition of agonist-induced GTP-gammaS binding to H3

| Compound | inhibition at 4 µM [%] |
| --- | --- |
| c1cncc(CN2CCc3ncnc(N4CCN(C5CCC5)CC4)c3CC2)c1 [Compound 154, 4-(4-cyclobutylpiperazin-1-yl)-7-(pyridin-3-ylmethyl)-6,7,8,9-tetrahydro-5H-pyrimido[4,5-d]azepine] | ≥ 90 |
| c1nc2c(c(N3CCN(C4CCC4)CC3)n1)CCN(Cc1ccc(N3CCOCC3)nc1)CC2 [Compound 155, 4-(4-cyclobutylpiperazin-1-yl)-7-[(6-morpholin-4-ylpyridin-3-yl)methyl]-6,7,8,9-tetrahydro-5H-pyrimido[4,5-d]azepine] | ≥ 90 |
| Cc1cc(CN2CCc3ncnc(N4CCN(C5CCC5)CC4)c3CC2)n(C)n1 [Compound 156, 4-(4-cyclobutylpiperazin-1-yl)-7-[(1,3-dimethyl-1H-pyrazol-5-yl)methyl]-6,7,8,9-tetrahydro-5H-pyrimido[4,5-d]azepine] | ≥ 90 |
| COc1ccccc1CN1CCc2ncnc(N3CCN(C4CCC4)CC3)c2CC1 [Compound 157, 4-(4-cyclobutylpiperazin-1-yl)-7-(2-methoxybenzyl)-6,7,8,9-tetrahydro-5H-pyrimido[4,5-d]azepine] | ≥ 90 |
| COc1ccc(CN2CCc3ncnc(N4CCN(C5CCC5)CC4)c3CC2)c(OC)c1 [Compound 158, 4-(4-cyclobutylpiperazin-1-yl)-7-(2,4-dimethoxybenzyl)-6,7,8,9-tetrahydro-5H-pyrimido[4,5-d]azepine] | ≥ 90 |
| CC(C)c1ccc(CN2CCc3ncnc(N4CCN(C5CCC5)CC4)c3CC2)cc1 [Compound 159, 4-(4-cyclobutylpiperazin-1-yl)-7-(4-isopropylbenzyl)-6,7,8,9-tetrahydro-5H-pyrimido[4,5-d]azepine] | ≥ 90 |
| CCN1CCc2ncnc(N3CCN(C4CCC4)CC3)c2CC1 [Compound 160, 4-(4-cyclobutylpiperazin-1-yl)-7-ethyl-6,7,8,9-tetrahydro-5H-pyrimido[4,5-d]azepine] | ≥ 90 |
| CC(C)CCN1CCc2ncnc(N3CCN(C4CCC4)CC3)c2CC1 [Compound 161, 4-(4-cyclobutylpiperazin-1-yl)-7-(3-methylbutyl)-6,7,8,9-tetrahydro-5H-pyrimido[4,5-d]azepine] | ≥ 90 |
| CCCN1CCc2ncnc(N3CCN(C4CCC4)CC3)c2CC1 [Compound 162, 4-(4-cyclobutylpiperazin-1-yl)-7-propyl-6,7,8,9-tetrahydro-5H-pyrimido[4,5-d]azepine] | ≥ 90 |
| CCCCN1CCc2ncnc(N3CCN(C4CCC4)CC3)c2CC1 [Compound 163, 7-butyl-4-(4-cyclobutylpiperazin-1-yl)-6,7,8,9-tetrahydro-5H-pyrimido[4,5-d]azepine] | ≥ 90 |
| CCCCCN1CCc2ncnc(N3CCN(C4CCC4)CC3)c2CC1 [Compound 164, 4-(4-cyclobutylpiperazin-1-yl)-7-pentyl-6,7,8,9-tetrahydro-5H-pyrimido[4,5-d]azepine] | ≥ 90 |
| CCCCCCN1CCc2ncnc(N3CCN(C4CCC4)CC3)c2CC1 [Compound 165, 4-(4-cyclobutylpiperazin-1-yl)-7-hexyl-6,7,8,9-tetrahydro-5H-pyrimido[4,5-d]azepine] | ≥ 90 |
| CC(C)CN1CCc2ncnc(N3CCN(C4CCC4)CC3)c2CC1 [Compound 166, 4-(4-cyclobutylpiperazin-1-yl)-7-isobutyl-6,7,8,9-tetrahydro-5H-pyrimido[4,5-d]azepine] | ≥ 90 |
| CCC(C)CN1CCc2ncnc(N3CCN(C4CCC4)CC3)c2CC1 (stereo not drawn) [Compound 167, 4-(4-cyclobutylpiperazin-1-yl)-7-(2-methylbutyl)-6,7,8,9-tetrahydro-5H-pyrimido[4,5-d]azepine] | ≥ 90 |
| CCC(CC)CN1CCc2ncnc(N3CCN(C4CCC4)CC3)c2CC1 [Compound 168, 4-(4-cyclobutylpiperazin-1-yl)-7-(2-ethylbutyl)-6,7,8,9-tetrahydro-5H-pyrimido[4,5-d]azepine] | ≥ 90 |
| c1nc2c(c(N3CCN(C4CCC4)CC3)n1)CCN(CC1CC1)CC2 [Compound 169, 4-(4-cyclobutylpiperazin-1-yl)-7-(cyclopropylmethyl)-6,7,8,9-tetrahydro-5H-pyrimido[4,5-d]azepine] | ≥ 90 |
| CCCC(C)CN1CCc2ncnc(N3CCN(C4CCC4)CC3)c2CC1 (stereo not drawn) [Compound 170, 4-(4-cyclobutylpiperazin-1-yl)-7-(2-methylpentyl)-6,7,8,9-tetrahydro-5H-pyrimido[4,5-d]azepine] | ≥ 90 |
| c1nc2c(c(N3CCN(C4CCC4)CC3)n1)CCN(CC1CCOC1)CC2 (stereo not drawn) [Compound 171, 4-(4-cyclobutylpiperazin-1-yl)-7-(tetrahydrofuran-3-ylmethyl)-6,7,8,9-tetrahydro-5H-pyrimido[4,5-d]azepine] | ≥ 90 |
| Cc1ccc(CN2CCc3ncnc(N4CCN(C5CCC5)CC4)c3CC2)cc1C [Compound 172, 4-(4-cyclobutylpiperazin-1-yl)-7-(3,4-dimethylbenzyl)-6,7,8,9-tetrahydro-5H-pyrimido[4,5-d]azepine] | ≥ 90 |
| c1nc2c(c(N3CCN(C4CCC4)CC3)n1)CCN(Cc1ccc3c(c1)OCCO3)CC2 [Compound 173, 4-(4-cyclobutylpiperazin-1-yl)-7-(2,3-dihydro-1,4-benzodioxin-6-ylmethyl)-6,7,8,9-tetrahydro-5H-pyrimido[4,5-d]azepine] | ≥ 90 |
| c1ccc2nc(CN3CCc4ncnc(N5CCN(C6CCC6)CC5)c4CC3)ccc2c1 [Compound 174, 4-(4-cyclobutylpiperazin-1-yl)-7-(quinolin-2-ylmethyl)-6,7,8,9-tetrahydro-5H-pyrimido[4,5-d]azepine] | ≥ 90 |
| COc1cccc(CN2CCc3ncnc(N4CCN(C5CCC5)CC4)c3CC2)c1OC [Compound 175, 4-(4-cyclobutylpiperazin-1-yl)-7-(2,3-dimethoxybenzyl)-6,7,8,9-tetrahydro-5H-pyrimido[4,5-d]azepine] | ≥ 90 |

Second part, the compound after the results:

| inhibition at 4 µM [%] | Compound |
| --- | --- |
| ≥ 90 | COc1ccc(OC)c(CN2CCc3ncnc(N4CCN(C5CCC5)CC4)c3CC2)c1 [Compound 176, 4-(4-cyclobutylpiperazin-1-yl)-7-(2,5-dimethoxybenzyl)-6,7,8,9-tetrahydro-5H-pyrimido[4,5-d]azepine] |
| ≥ 90 | CCn1cncc1CN1CCc2ncnc(N3CCN(C4CCC4)CC3)c2CC1 [Compound 177, 4-(4-cyclobutylpiperazin-1-yl)-7-[(1-ethyl-1H-imidazol-5-yl)methyl]-6,7,8,9-tetrahydro-5H-pyrimido[4,5-d]azepine] |
| ≥ 90 | c1nc2c(c(N3CCN(C4CCC4)CC3)n1)CCN(Cc1ccc(N3CCCC3)nc1)CC2 [Compound 178, 4-(4-cyclobutylpiperazin-1-yl)-7-[(6-pyrrolidin-1-ylpyridin-3-yl)methyl]-6,7,8,9-tetrahydro-5H-pyrimido[4,5-d]azepine] |
| ≥ 90 | Cc1c(F)cccc1CN1CCc2ncnc(N3CCN(C4CCC4)CC3)c2CC1 [Compound 179, 4-(4-cyclobutylpiperazin-1-yl)-7-(3-fluoro-2-methylbenzyl)-6,7,8,9-tetrahydro-5H-pyrimido[4,5-d]azepine] |
| ≥ 90 | Clc1ccccc1CN1CCc2ncnc(N3CCN(C4CCC4)CC3)c2CC1 [Compound 180, 7-(2-chlorobenzyl)-4-(4-cyclobutylpiperazin-1-yl)-6,7,8,9-tetrahydro-5H-pyrimido[4,5-d]azepine] |
| ≥ 90 | Clc1ccc(CN2CCc3ncnc(N4CCN(C5CCC5)CC4)c3CC2)c(Cl)c1 [Compound 181, 4-(4-cyclobutylpiperazin-1-yl)-7-(2,4-dichlorobenzyl)-6,7,8,9-tetrahydro-5H-pyrimido[4,5-d]azepine] |
| ≥ 90 | c1nc2c(c(N3CCN(C4CCC4)CC3)n1)CCN(Cc1ccc(N3CCCC3)cc1)CC2 [Compound 182, 4-(4-cyclobutylpiperazin-1-yl)-7-(4-pyrrolidin-1-ylbenzyl)-6,7,8,9-tetrahydro-5H-pyrimido[4,5-d]azepine] |
